We go through 18 compounds from US6410561B1, “Amide derivatives and nociceptin antagonists” (Japan Tobacco Inc., priority 1998, dated 2002).

Like-named read-outs stand apart in the source and are kept apart here.

Data set [1] concerns the target T1, μ receptor (Rattus norvegicus, UniProt P33535).
T1 construct: Rat cerebrum membrane standard sample; from tissue; host or cells: rat cerebrum membranes
Briefly: μ receptor binding assay ([3H]DAMGO). To be noted: for Ki: calculated from IC50 and Kd of [3H]DAMGO; for IC50: rat cerebrum membrane, [3H]DAMGO 1 nM. How it is done: Rat cerebrum membrane standard sample (final concentration 0.755 mg·protein/ml), [^3H]DAMGO (Try-D-Ala-Gly-NMe-Phe-Gly-ol) [diluted with Tris buffer (50 mM Tris-HCl, 0.1 mM p-APMSF, 2 mg/ml BSA (pH=7.4)) to a final concentration of 1 nM] and test compound (diluted with Tris buffer to a final concentration of 10 nM-10 μM) were mixed, and the mixture was incubated at room temperature for 90 min. The membrane was recovered on a G/F-B filter (same as above) using a cell harvester and the reaction was stopped. After washing 3 times, the filter was dried at 42° C. for 1 hr. A scintillation solution (same as above) was added and the radioactivity (same as above) was assayed.
The nonspecific binding was the binding in the presence of 10 μM naloxone and the difference between the total binding and nonspecific binding was taken as the specific binding. IC50 was calculated from inhibition of specific binding at each concentration of the compound, and Ki value of the test compound was calculated from this value and Kd value of [^3H]DAMGO.

In data set [2] the test system is allodynia model. Briefly: Allodynia test (intrathecal nociceptin, tactile stimulation). Type of data set: in vivo, Mice. The conditions noted are these: Mus musculus, read-out: Allodynia M.E.D. (minimum effective dose). Here is the method:
Mice (Crj, ICR, 4-week-old, male) were intrathecally administered with nociceptin (50 pg/5 μl) without anesthesia. For 20 min after administration and at 5 min intervals, an area from lateral region to tail of the mice was rubbed with a brush and the response of the mice was observed. The evaluation followed the criteria of 0; no change, 1; run or cry upon tactile stimulation, and 2; cry loud or dash away upon tactile stimulation. The test compound was suspended in a 0.5% MC solution and orally administered 60 min before nociceptin administration. The significant difference of the score of each administration group at 20 min after nociceptin administration from the group administered with solvent was analyzed with Mann-Whitny U-test.

The subject of data set [3] is Mice. Briefly: Hot-plate test. It is filed as in vivo. To be noted: Mus musculus, 1 h, oral, 60 min after administration, 55.5°C, read-out: Hot-plate M.E.D. (minimum effective dose). How it is done:
Mice (Crj, ICR, 4-week-old, male) were placed on a hot-plate (temperature 55.5±0.5° C.) and the time until the mice jumped and tried to run away was recorded. The mice were grouped according to the time and body weight so that the groups were evenly membered. The test compound was suspended in a 0.5% methylcellulose (MC) solution and orally administered to mice. After 60 min, the mice were again placed on a hot-plate and the time until they licked the hindlimb or jumped and tried to run away was recorded. The significant difference from the group administered with solvent was analyzed with ANOVA followed by Dunnett two-tailed test.

For data set [4], the target named is T2, ORL-1 receptor (Homo sapiens, UniProt P41146).
T2 construct: expressed in transfected cells
T2 sequence (P41146 whole entry): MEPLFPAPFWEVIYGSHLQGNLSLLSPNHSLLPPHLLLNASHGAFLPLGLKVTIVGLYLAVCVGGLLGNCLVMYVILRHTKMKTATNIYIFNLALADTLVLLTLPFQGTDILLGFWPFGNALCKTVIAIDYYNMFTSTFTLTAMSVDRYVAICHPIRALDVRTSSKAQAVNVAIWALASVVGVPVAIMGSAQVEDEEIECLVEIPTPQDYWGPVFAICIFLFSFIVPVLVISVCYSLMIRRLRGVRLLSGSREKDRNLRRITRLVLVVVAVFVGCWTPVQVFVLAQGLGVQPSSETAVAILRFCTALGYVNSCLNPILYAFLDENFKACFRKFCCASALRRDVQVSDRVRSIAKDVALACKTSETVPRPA
Briefly: ORL1 receptor binding assay ([3H]nociceptin). The conditions noted are these: for Ki: calculated from IC50 and Kd of [3H]nociceptin; for IC50: membrane of human ORL-1 expression cells, [3H]nociceptin 0.5 nM. How it is done: ORL1 Receptor Binding Assay
A cell membrane suspension obtained from human ORL-1 expression cells was adjusted with Tris buffer [50 mM Tris, 2 mM EDTA, 0.1 mM (p-Amidinophenyl)methanesulfonyl Fluoride Hydrochloride (p-APMSF), 2 mg/ml BSA] to membrane protein amount of about 25 μg/ml (2.5 μg/well). This was mixed with [^3H]nociceptin (diluted with Tris buffer to a final concentration of 0.5 nM) and test compound (diluted with Tris buffer to a final concentration of 10 nM-10 μM), and the mixture was incubated at room temperature for 60 min. The membrane was recovered on a G/F-B filter (Packard, Unifilter 96GF/B) using a cell harvester and the reaction was stopped. After washing 3 times, the filter was dried at 42° C. for 1 hr. A scintillation solution (Packard, microscint-20) was added and the radioactivity (Packard, Top count A9912V) was assayed.
The nonspecific binding was the binding in the presence of 1 μM nociceptin and the difference between the total binding and nonspecific binding was taken as the specific binding. IC50 was calculated from inhibition of specific binding at each concentration of the compound, and Ki value of the test compound was calculated from this value and Kd value of [^3H]nociceptin.

The mark [5] stands for this setting: mice, oral, 60 min before nociceptin 50 pg i.t., score at 20 min.

T1 sequence (P33535 whole entry): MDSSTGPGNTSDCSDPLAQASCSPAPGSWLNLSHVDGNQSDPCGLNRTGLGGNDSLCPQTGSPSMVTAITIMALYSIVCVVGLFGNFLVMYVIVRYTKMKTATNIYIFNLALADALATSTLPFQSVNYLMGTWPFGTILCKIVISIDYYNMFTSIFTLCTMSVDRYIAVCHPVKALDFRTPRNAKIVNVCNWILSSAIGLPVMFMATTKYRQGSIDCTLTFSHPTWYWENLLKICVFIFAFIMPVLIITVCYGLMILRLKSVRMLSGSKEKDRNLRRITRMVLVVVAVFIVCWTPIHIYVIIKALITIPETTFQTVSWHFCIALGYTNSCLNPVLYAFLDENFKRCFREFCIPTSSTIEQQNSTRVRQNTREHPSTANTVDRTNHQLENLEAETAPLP

Consider `CCc1ccc(OCc2ccccc2C(=O)Nc2ccc3nc(C)cc(N)c3c2)cc1.Cl` [Example 1, N-(4-amino-2-methyl-6-quinolyl)-2-[(4-ethylphenoxy)methyl]-benzamide hydrochloride], for which the Ki (commonly the dissociation constant of the complex between target and ligand, obtained from inhibition or displacement) was 570 nM in data set [1] and 7 nM in data set [4]. Besides, the IC50 (as a rule, the point on the concentration scale where inhibition reaches its midpoint) in data set [1] stood at 1520 nM; in data set [4] it was 120 nM. The minimal effective dose in data set [2] (setting [5]) is 0.3 mg/kg; in data set [3], 1 mg/kg.
On to `Cc1cc(N)c2cc(NC(=O)c3ccccc3COc3ccccc3)ccc2n1.Cl` [Example 3, N-(4-amino-2-methyl-6-quinolyl)-2-(phenoxymethyl)benzamide hydrochloride], for which the Ki in data set [1] was 417 nM; in data set [4], 79 nM. In addition, the IC50 in data set [1] amounted to 1110 nM; in data set [4], 1470 nM. The minimal effective dose in data set [2] (setting [5]) worked out at 3 mg/kg; in data set [3], 30 mg/kg.
On to `Cc1cc(C)cc(OCc2ccccc2C(=O)Nc2ccc3nc(C)cc(N)c3c2)c1.Cl` [Example 5, N-(4-amino-2-methyl-6-quinolyl)-2-[(3,5-dimethylphenoxy)methyl]benzamide hydrochloride], for which the melting point – broadly, the temperature of the solid-liquid transition – amounted to 265 °C. In addition, in data set [1], the inhibition constant (Ki) was 505 nM and the IC50 came out at 1340 nM. Moreover, the minimal effective dose in data set [2] (setting [5]) was determined as 3 mg/kg. In data set [4], the Ki is 28 nM and the IC50 was determined as 520 nM.
As to `COc1cccc(OCc2ccccc2C(=O)Nc2ccc3nc(C)cc(N)c3c2)c1OC.Cl` [Example 8, N-(4-amino-2-methyl-6-quinolyl)-2-[(2,3-dimethoxyphenoxy)methyl]benzamide hydrochloride], the melting point is 196 °C. In data set [1], the Ki was 183 nM and the IC50 was found to be 490 nM. Also, the minimal effective dose in data set [2] (setting [5]) is 3 mg/kg. Moreover, in data set [4], the Ki is 50 nM and the IC50 turned out to be 940 nM.
For the compound `Cc1cccc(OCc2ccccc2C(=O)Nc2ccc3nc(C)cc(N)c3c2)c1` [Example 9, N-(4-amino-2-methyl-6-quinolyl)-2-[(3-methylphenoxy)methyl]benzamide], the Ki in data set [1] was 764 nM; in data set [4], 16 nM. Also, the IC50 in data set [1] came out at 2030 nM; in data set [4], 320 nM. The minimal effective dose in data set [2] (setting [5]) was 1 mg/kg; in data set [3], below 3 mg/kg.
As to `Cc1cc(N)c2cc(NC(=O)c3ccccc3COc3ccc(C(F)(F)F)cc3)ccc2n1.Cl` [Example 18, N-(4-amino-2-methyl-6-quinolyl)-2-[(4-trifluoromethylphenoxy)methyl]benzamide hydrochloride], the melting point was found to be 220 °C. For the same compound, in data set [1], the Ki is 393 nM and the IC50 was 1040 nM. In data set [2] (setting [5]), the minimal effective dose was found to be 0.3 mg/kg. For the same compound, in data set [4], the Ki is 4 nM and the IC50 came out at 90 nM.
`Cc1cc(N)c2cc(NC(=O)c3ccccc3COc3ccccc3Cl)ccc2n1.Cl` [Example 27, N-(4-amino-2-methyl-6-quinolyl)-2-[(2-chlorophenoxy)methyl]benzamide hydrochloride]: the melting point came out at 165 °C. In addition, in data set [1], the inhibition constant Ki was 414 nM and the IC50 turned out to be 1060 nM. In addition, in data set [2] (po), the minimal effective dose worked out at 0.3 mg/kg.
On the same counts, the results for `Cc1cc(N)c2cc(NC(=O)c3ccccc3COc3ccc([N+](=O)[O-])cc3)ccc2n1.Cl` [Example 32, N-(4-amino-2-methyl-6-quinolyl)-2-[(4-nitrophenoxy)methyl]benzamide hydrochloride] are 238 °C, 227 nM, 580 nM and above 0.3 mg/kg.
`Cc1cc(N)c2cc(NC(=O)c3ccccc3COc3ccc(Br)cc3)ccc2n1.Cl` [Example 33, N-(4-amino-2-methyl-6-quinolyl)-2-[(4-bromophenoxy)methyl]benzamide hydrochloride] came in with a melting point of 252 °C. Further, in data set [1], the Ki is 565 nM and the IC50 was 1440 nM. For the same compound, the minimal effective dose in data set [2] (setting [5]) is 0.3 mg/kg. Besides, in data set [4], the Ki is 5 nM and the IC50 stood at 90 nM.
Regarding `CCCc1ccc(OCc2ccccc2C(=O)Nc2ccc3nc(C)cc(N)c3c2)cc1.Cl` [Example 34, N-(4-amino-2-methyl-6-quinolyl)-2-[(4-propylphenoxy)methyl]benzamide hydrochloride], the values for the inhibition constant Ki in data set [1] and in data set [4] were 888 nM and 8 nM, respectively. Also, the IC50 in data set [1] worked out at 2370 nM; in data set [4], 140 nM. In addition, the figures for the minimal effective dose in data set [2] (setting [5]) and in data set [3] were 0.3 mg/kg and 3 mg/kg, respectively.
As to `Cc1cc(N)c2cc(NC(=O)c3ccccc3COc3ccc(Cl)c(C)c3)ccc2n1.Cl` [Example 42, N-(4-amino-2-methyl-6-quinolyl)-2-[(4-chloro-3-methylphenoxy)methyl]benzamide hydrochloride], the Ki in data set [1] is 745 nM; in data set [4], 4 nM. In addition, the IC50 was found to be 1990 nM in data set [1] and 80 nM in data set [4]. Moreover, the minimal effective dose was 0.3 mg/kg in data set [2] (setting [5]) and 1 mg/kg in data set [3].
As to `Cc1ccc(OCc2ccccc2C(=O)Nc2ccc3nc(C)cc(N)c3c2)c(Cl)c1.Cl` [Example 43, N-(4-amino-2-methyl-6-quinolyl)-2-[(2-chloro-4-methylphenoxy)methyl]benzamide hydrochloride], the results for the Ki in data set [1] and in data set [4] were 785 nM and 5 nM, respectively. The IC50 in data set [1] is 2100 nM; in data set [4], 110 nM. Also, the minimal effective dose was 0.3 mg/kg in data set [2] (setting [5]) and 1 mg/kg in data set [3].
`CCc1cc(N)c2cc(NC(=O)c3ccccc3COc3ccc(Cl)cc3)ccc2n1.Cl` [Example 49]: the Ki in data set [1] is 464 nM; in data set [4], 2 nM. In addition, the IC50 in data set [1] came out at 1260 nM; in data set [4], 40 nM. The figures for the minimal effective dose in data set [2] (setting [5]) and in data set [3] were 0.3 mg/kg and 1 mg/kg, respectively.
Turning to `Cc1cc(N)c2cc(NC(=O)c3ccccc3CCCCOc3ccccc3)ccc2n1.Cl` [Example 63], in data set [1], the Ki was 545 nM and the IC50 is 1420 nM. Moreover, in data set [2] (setting [5]), the minimal effective dose is above 3 mg/kg. Moreover, in data set [4], the Ki was 54 nM and the IC50 amounted to 1030 nM.
In the case of `Cc1cc(N)c2cc(NC(=O)c3ccccc3CCCCCOc3ccccc3)ccc2n1.Cl` [Example 64], the melting point was 253 °C. Besides, in data set [1], the Ki was 1380 nM and the IC50 is 3610 nM. In data set [2] (setting [5]), the minimal effective dose was above 3 mg/kg. In data set [4], the Ki was 73 nM and the IC50 was found to be 1390 nM.
Consider `Cc1cc(N)c2cc(NC(=O)c3ccccc3CCCCCCOc3ccccc3)ccc2n1.Cl` [Example 66], for which the melting point worked out at 210 °C. In addition, the minimal effective dose in data set [2] (setting [5]) was above 3 mg/kg. Moreover, in data set [4], the Ki is 108 nM and the IC50 worked out at 2000 nM.
Consider `CCc1ccc(OCc2ccccc2C(=O)Nc2ccc3nc(CC)cc(N)c3c2)c(Cl)c1` [Example 90], for which, in data set [1], the Ki was 442 nM and the IC50 worked out at 1180 nM. The minimal effective dose in data set [3] was 3 mg/kg. Further, in data set [4], the Ki was 5 nM and the IC50 came out at 110 nM.
Consider `Cc1cc(N)c2cc(NC(=O)c3ccccc3COc3ccc4c(c3)CCO4)ccc2n1.Cl` [Example 93], for which the melting point is 233 °C. For the same compound, the minimal effective dose in data set [2] (setting [5]) is above 0.3 mg/kg. In data set [4], the Ki was 7 nM and the IC50 was 120 nM.
